Values after ≈ are worked out from the molar mass of the structure shown. Like-named read-outs stand apart in the source and are kept apart here.
Key:
[1] = test system: M. incognita pre-parasitic J2 larvae; assay: In vitro nematicidal efficacy of methylketones on M. incognita J2 larvae; type: cell-based; settings: Meloidogyne incognita, read-out: IC30 M. incognita vs. J2
Protocol: (§1) The example illustrates the surprising nematicidal efficacy of various methylketones. Methylketones of various chain lengths were tested in vitro against C. elegans L1 and L4 larvae and M. incognita pre-parasitic J2 larvae, the dispersal larval stage found in the soil. […] IC30 is defined as the concentration of the methylketone at which 30 percent of the nematodes are killed after an exposure of 4 hours for C. elegans and 24 hours for M. incognita.

[2] = test system: root knot nematode (M. incognita); assay: Greenhouse whole plant assay, root knot nematode infection of tomato in sand; type: in vivo; settings: for nematode control (in words): M. incognita, greenhouse, 40 and 8 kg/ha; for % Control: control of nematode-induced galling; for % Galled Roots: soil application before inoculation, harvest 21 days, no compound added: 60
Protocol: (§2) Whole plant assays were used to determine the efficacy of the methylketones on the infection of soybean plants and tomato plants by nematodes, H. glycines and M. incognita, respectively. The seeds were planted in 100 percent sand in two-inch square plastic pots and grown to a sufficient size for treatment. […] Following methylketone treatment, nematodes were inoculated into each pot and for soybeans are then incubated for 28 days before harvest and for tomatoes incubated 21 days before harvest.
(§3) To each of four pots, five milliliters of the appropriate chemical solution is applied to the surface making sure to avoid contact with the base of the plant. Immediately following the chemical application, the pot surface is wetted sufficiently to water in the chemical. One milligram of chemical per four pots is approximately equivalent to one kilogram per hectare of chemical. A standard test uses four replications. For rates above 2 kg/ha, the desired amount of chemical is weighed into a 30 ml vial (example: 8 kg/ha rate=8 mg chemical in 30 ml vial). The chemical is dissolved in 2 ml of an appropriate solvent, generally acetone. For rates below 2 kg/ha, 2 milligrams of chemistry is weighed into the vial and dissolved in 2 ml of the solvent. The appropriate amount of chemical concentrate is then applied into a separate 30 ml vial and solvent is added to bring the volume to 2 ml (example 0.5 kg/ha=0.5 ml of concentrate+1.5 ml solvent). Each dissolved concentrate is then brought to a total of 20 milliliters using 0.05% Triton X-100 surfactant solution.
(§4) Nematode eggs, either SCN or RKN, are added to distilled water to create a concentration of 1000 vermiform eggs per […] of water. At least four hours after chemical treatment the eggs are applied to the treated pots plus non-treated check plants. A small hole about 1 cm deep is punched into the pot surface. One milliliter of the nematode egg slurry is applied into the hole. Immediately afterwards the hole is gently covered. Watering of the test plants is then restricted to a minimum volume needed to prevent wilting for a period of 24 hours. After the 24 hour restricted watering, normal sub-irrigation watering is done for the duration of the test.
The 2-undecanone, 2-tridecanone, and 2-pentadecanone are tested in greenhouse studies against M. incognita infection of tomato roots in sand. […] Shown in Table 2 is a high level of nematicidal activity of various methylketones observed against root knot nematode (M. incognita) inoculated into treated pots containing tomato plants. […] The listed kilograms/hectare (kg/ha) rating is based upon the surface area of the test pots; 1 kg/ha equates to about 1.65 mg compound per kilogram of soil in these assays.

[3] = test system: C. elegans L1 and L4 larvae; assay: In vitro nematicidal efficacy of methylketones on C. elegans larvae; type: cell-based; settings: Caenorhabditis elegans
Protocol: as §1

[4] = test system: soybean cyst nematode (H. glycines); assay: Greenhouse whole plant assay, soybean cyst nematode infection of soybean; type: in vivo; settings: for % Control: relative to the non-treated; for #cysts/plant: soil drench prior to inoculation, harvest 28 days, no compound added: 49
Protocol: as §2, §3, §4
2-tridecanone was also assayed in the greenhouse for control of soybean cyst nematode (H. glycines) in soybeans (Table 3). Nematode control (#cysts/plant) is observed at 40 kg/ha (96% control relative to the non-treated) and 8 kg/ha (80% control relative to the non-treated) when 2-tridecanone was applied as a soil drench prior to nematode inoculation.

[5] = concentration at which 30 percent of the nematodes are killed, exposure 24 hours, J2 larvae
[6] = concentration at which 30 percent of the nematodes are killed, exposure 4 hours, L1 larvae, read-out: IC30 C. elegans vs. L1
[7] = concentration at which 30 percent of the nematodes are killed, exposure 4 hours, L4 larvae, read-out: IC30 C. elegans vs. L4

Compound: CCCCCCCCCCCCCC(C)=O [2-pentadecanone]
- IC30 [1, 5]: 400 µg/mL (≈ 1770 µM)
- nematode control (in words) [2]: demonstrated nematode control
- % Control ([2]; rate 8 kg/ha): 25%
- % Galled Roots ([2]; rate 8 kg/ha): 45%
- % Control ([2]; rate 40 kg/ha): 37%
- % Galled Roots ([2]; rate 40 kg/ha): 38%
- IC30 [3, 6]: 12.5 µg/mL (≈ 55.2 µM)
- IC30 [3, 7]: > 100 µg/mL

Compound: CCCCCC(C)=O [2-heptanone]
- IC30 [1, 5]: 400 µg/mL (≈ 3500 µM)
- IC30 [3, 6]: > 400 µg/mL
- IC30 [3, 7]: > 400 µg/mL

Compound: CCCCCCCCC(C)=O [2-decanone]
- IC30 [1, 5]: 25 µg/mL (≈ 160 µM)
- IC30 [3, 6]: 6.3 µg/mL (≈ 40.3 µM)
- IC30 [3, 7]: > 400 µg/mL

Compound: CCCCCCCCCCCC(C)=O [2-tridecanone]
- IC30 [1, 5]: 50 µg/mL (≈ 252 µM)
- % Control ([2]; rate 8 kg/ha): 97%
- % Galled Roots ([2]; rate 8 kg/ha): 2%
- % Control ([2]; rate 40 kg/ha): 100%
- % Galled Roots ([2]; rate 40 kg/ha): 0%
- IC30 [3, 6]: 3.2 µg/mL (≈ 16.1 µM)
- IC30 [3, 7]: 12.5 µg/mL (≈ 63 µM)
- % Control ([4]; rate 8 kg/ha): 80%
- #cysts/plant ([4]; rate 8 kg/ha): 10
- % Control ([4]; rate 40 kg/ha): 96%
- #cysts/plant ([4]; rate 40 kg/ha): 2

Compound: CCCCCCCCCCC(C)=O [2-dodecanone]
- IC30 [1, 5]: 50 µg/mL (≈ 271 µM)
- IC30 [3, 6]: 3.2 µg/mL (≈ 17.4 µM)
- IC30 [3, 7]: 25 µg/mL (≈ 136 µM)

Compound: CCCCCCCCCC(C)=O [2-undecanone]
- IC30 ([1]; 24 h): 50 µg/mL (≈ 294 µM)
- nematode control (in words) [2]: demonstrated nematode control
- % Control ([2]; rate 8 kg/ha): 35%
- % Galled Roots ([2]; rate 8 kg/ha): 39%
- % Control ([2]; rate 40 kg/ha): 65%
- % Galled Roots ([2]; rate 40 kg/ha): 21%
- IC30 ([3]; 4 h, read-out: IC30 C. elegans vs. L1): 6.3 µg/mL (≈ 37 µM)
- IC30 ([3]; 4 h, read-out: IC30 C. elegans vs. L4): 25 µg/mL (≈ 147 µM)

Compound: CCCCCCCCCCCCC(C)=O [2-tetradecanone]
- IC30 [1, 5]: 25 µg/mL (≈ 118 µM)
- IC30 [3, 6]: 3.2 µg/mL (≈ 15.1 µM)
- IC30 [3, 7]: > 100 µg/mL

Compound: CCCCCCCC(C)=O [2-nonanone]
- IC30 [1, 5]: 200 µg/mL (≈ 1410 µM)
- IC30 [3, 6]: 12.5 µg/mL (≈ 87.9 µM)
- IC30 [3, 7]: > 400 µg/mL

Reference: patent US9006517B2, “Methods and compositions for plant pest control” (Monsanto Technology LLC, priority 2008, dated 2015)
